This passage reports EC50, IC50 and Ki results from PMC4490613 (Journal of Neuroinflammation, 2015).

Assay [1] has as its target T1, hCB2 (Homo sapiens, UniProt P34972).
T1 construct: gene CNR2; full-length receptor in CHO-K1 cells, membranes or intact cells; PathHunter CHO-K1-HOMSA-CNR2 for beta-arrestin
Put plainly: […]GTPγS binding, CHO-hCB2 membranes. Type of assay: biochemical. For orientation: Binding of GTPγS marks nucleotide exchange on a G protein.

Assay [2] concerns the target T1, hCB2. Put plainly: forskolin-induced cAMP, GloSensor, CHO-hCB2 cells. Conditions: read-out: CHO cells / h CB2 cAMP. Type of assay: cell-based. The text has this: forskolin-induced cAMP, GloSensor, CHO-hCB2 cells on hCB2
Another assay concerns the target T2, hCB1 (Homo sapiens, UniProt P21554).
T2 construct: gene CNR1; full-length receptor in CHO cell membranes
Put plainly: [3H]CP55, […] displacement, CHO membranes. Type of assay: binding. Particulars: read-out: CHO membranes / h CB 1.

Another assay has as its target T3, hCOX-2 (Homo sapiens, UniProt P35354).
T3 construct: gene PTGS2
T3 sequence (P35354 18-604): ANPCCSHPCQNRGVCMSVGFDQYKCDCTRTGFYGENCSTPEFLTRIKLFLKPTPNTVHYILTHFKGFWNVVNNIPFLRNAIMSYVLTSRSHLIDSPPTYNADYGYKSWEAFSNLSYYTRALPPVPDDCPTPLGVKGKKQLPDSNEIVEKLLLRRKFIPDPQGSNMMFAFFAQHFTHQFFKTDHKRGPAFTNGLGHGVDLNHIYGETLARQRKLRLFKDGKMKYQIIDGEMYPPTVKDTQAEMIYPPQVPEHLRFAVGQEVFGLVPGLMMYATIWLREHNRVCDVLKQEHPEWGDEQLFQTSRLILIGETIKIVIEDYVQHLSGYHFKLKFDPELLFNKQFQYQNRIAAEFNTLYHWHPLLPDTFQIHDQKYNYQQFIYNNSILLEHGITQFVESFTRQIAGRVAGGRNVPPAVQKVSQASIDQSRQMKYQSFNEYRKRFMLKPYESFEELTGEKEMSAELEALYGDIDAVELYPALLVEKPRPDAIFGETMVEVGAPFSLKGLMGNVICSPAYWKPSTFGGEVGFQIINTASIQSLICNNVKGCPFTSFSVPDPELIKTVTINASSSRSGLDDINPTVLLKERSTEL
Put plainly: fluorescent COX inhibitor assay (ADHP), recombinant hCOX-2. In kind it is biochemical. Particulars: read-out: h COX-2 / AA. The text has this:
fluorescent COX inhibitor assay (ADHP), recombinant hCOX-2 on hCOX-2

For assay [3], the target named is T1, hCB2. Put plainly: [3H]CP55, […] displacement, CHO membranes. Type of assay: binding.
Assay [4] has as its target T1, hCB2. The assay is described as follows: […]GTPγS binding, CHO-hCB2 membranes. In kind it is biochemical. Particulars: read-out: CHO membranes / h CB2 [ ^35 S] GTPγS.
The mark [5] stands for this setting: read-out: CHO membranes / h CB 2.

Where two headings read alike, the source gives them in different places.

T1 sequence (P34972 whole entry): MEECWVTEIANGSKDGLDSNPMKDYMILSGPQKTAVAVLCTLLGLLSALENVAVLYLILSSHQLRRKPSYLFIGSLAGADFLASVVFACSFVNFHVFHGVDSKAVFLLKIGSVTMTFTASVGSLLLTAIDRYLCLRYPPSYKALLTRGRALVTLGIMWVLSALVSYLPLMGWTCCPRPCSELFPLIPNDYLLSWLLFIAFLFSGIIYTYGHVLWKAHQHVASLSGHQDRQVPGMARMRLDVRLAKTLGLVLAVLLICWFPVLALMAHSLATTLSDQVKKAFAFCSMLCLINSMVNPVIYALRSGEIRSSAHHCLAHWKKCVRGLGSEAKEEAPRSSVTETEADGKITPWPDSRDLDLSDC
T2 sequence (P21554 whole entry): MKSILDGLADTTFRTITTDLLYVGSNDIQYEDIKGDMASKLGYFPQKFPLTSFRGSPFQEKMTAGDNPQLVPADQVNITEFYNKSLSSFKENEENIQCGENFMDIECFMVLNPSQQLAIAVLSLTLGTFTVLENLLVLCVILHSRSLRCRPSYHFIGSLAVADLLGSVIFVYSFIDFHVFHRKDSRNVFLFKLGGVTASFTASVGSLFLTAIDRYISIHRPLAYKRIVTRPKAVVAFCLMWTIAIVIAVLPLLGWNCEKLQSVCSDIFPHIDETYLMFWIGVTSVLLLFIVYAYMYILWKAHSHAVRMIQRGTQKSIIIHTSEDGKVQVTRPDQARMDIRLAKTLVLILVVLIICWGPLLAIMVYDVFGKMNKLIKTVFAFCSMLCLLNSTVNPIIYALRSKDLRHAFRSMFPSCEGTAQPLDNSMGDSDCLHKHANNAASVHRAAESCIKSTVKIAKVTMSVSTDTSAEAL

As to `CCCCC/C=C\C/C=C\C/C=C\C/C=C\CCCC(=O)OC(CO)CO` [2-AG], the EC50 at hCB2 [1] (read-out: EC50) stood at 74 nM.
For the molecule `C=CCc1ccc(OC)c(-c2ccc(O)c(CC=C)c2)c1` [27a, 2-methoxy-5,3′-di-(2-propenyl)-biphenyl-4′-ol], the EC50 at hCB2 [1] (read-out: CHO membranes / h CB2 [ ^35 S] GTPγS) is 180 ± 90 nM. Besides, the IC50 on hCB2 [2] is 710 ± 90 nM; at hCOX-2, 1210 ± 80 nM. Also, the results for the Ki at hCB1 and on hCB2 [3] (setting [5]) were 790 ± 100 nM and 110 ± 90 nM, respectively.
Regarding `C=CCc1ccc(OCCCC)c(-c2ccc(O)c(CC=C)c2)c1` [34a, 2-butyloxy-5,3′-di-(2-propenyl)-biphenyl-4′-ol], the IC50 at hCB2 [4] was 1820 ± 140 nM; on hCOX-2, 4310 ± 100 nM. Besides, the values for the Ki at hCB1 and on hCB2 [3] (setting [5]) were 1120 ± 150 nM and 350 ± 110 nM, respectively.
For the molecule `C=CCc1ccc(O)c(-c2ccc(OC)c(CC=C)c2)c1` [MH, 4′-methoxy-5,3′-di-(2-propenyl)-biphenyl-2-ol], the IC50 at hCOX-2 (substrate arachidonic acid 10 μM, heme, pH 8, 15 min pre-incubation, RT) was found to be 580 ± 80 nM.
Consider `CCC(C)c1ccc(O)c(-c2cc(C(C)CC)ccc2O)c1` (stereo not shown) [compound 32, 5,5′-di-sec-butyl-biphenyl-2,2′-diol], for which, on hCOX-2, the IC50 came out at 10200 ± 120 nM. Moreover, the Ki on hCB2 [3] was > 10000 nM.
